The nature of this data set: gradient 5% acetonitrile 3 min, to 50% in 2 min, to 85% in 15 min, held 3 min, 100 µL/min. To be noted: column: Zorbax Extend-C18 2.1 x 50 mm; eluents: water / acetonitrile, 0.1% formic acid. The method in brief: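 Standards, all pure, were combined into mixtures of ~100 molecules and run at 100 μL/min on a Zorbax Extend-C18 column (2.1 × 50 mm, 1.8 μm) with water and acetonitrile, each containing 0.1% formic acid. A coupled quadrupole time-of-flight mass spectrometer operated in positive and negative ionization mode. Retention time values come from computationally picked adduct peaks, each inspected manually.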
`COc1ccc(CC(=O)Nc2c3c(nn2-c2ccc([N+](=O)[O-])cc2)CSC3)cc1OC` showed an RP-LC retention time of 777 s. In the case of `CC(NC(=O)C1CCN(c2cnc3nccnc3c2)CC1)c1ccccc1` (stereo not drawn), the RP-LC retention time amounted to 705 s. `COc1cccc(NC(=O)Cn2nc3cc(C)nc(Nc4ccc(C)c(F)c4)n3c2=O)c1` showed an RP-LC retention time of 1100 s. Then `O=C(Nc1ccc(F)c(Cl)c1)C1CCN(C(=O)C2Sc3ccccc3NC2=O)CC1` (stereo not drawn), with 826 s; and `COc1ccc(-n2nc(-c3nc(-c4ccccn4)no3)c3ccccc3c2=O)cc1`, with 946 s; and `CCOc1ccc(-c2noc(-c3nn(-c4cccc(OC)c4)ccc3=O)n2)cc1`, with 938 s. In the case of `CCOc1cc(C(=O)N2CCN(c3cc(-c4ccc(Cl)cc4)[nH]n3)CC2)cc(OCC)c1OCC` it was 997 s. Then `Cc1ccc(NC(=O)Nc2ccc3c(c2)CCN3S(=O)(=O)c2ccccc2)cc1C`, with 1030 s; and `O=C(Nc1ccc(F)cc1F)N1CCc2nc(-c3ccccc3)ncc2C1`, with 881 s. Consider `CCCN1CCN(C(=O)CC2CCN(C(=O)c3[nH]c(C)c(C(=O)OC(C)C)c3C)CC2)CC1`, for which the RP-LC retention time is 624 s. In turn, `CCCNC(=O)c1ccc(-c2nc3cc(NS(=O)(=O)c4cnc[nH]4)ccc3n2C)cc1` came in with an RP-LC retention time of 578 s.

Consider `Fc1ccc(-c2nc3ncccn3c2Nc2ccc(Cl)cc2)cc1`, for which the RP-LC retention time was 847 s. In turn, `Fc1ccc(-c2nc(-c3ccc4c(c3)ncn4CCN3CCOCC3)no2)cc1` gave an RP-LC retention time of 632 s. For the molecule `COC(=O)c1ccc(C(=O)NCC2(c3cccs3)CCCC2)cc1`, the RP-LC retention time was 971 s. `COc1cccc(OC)c1OCC(O)CN1CCN(c2ccc(F)cc2)CC1` (stereo not drawn) displayed an RP-LC retention time of 690 s. In turn, `CC(C)(C)CC(=O)N1CC(c2nc(-c3ccccc3)no2)C2(CCOCC2)C1` (stereo not drawn) came in with an RP-LC retention time of 904 s. `O=C(Nc1ccc(-c2nc3ccccc3o2)cc1)Nc1c(F)cccc1F`: the RP-LC retention time stood at 870 s. In the case of `CCC1CN2C=NC(N3CCN(C(=O)Nc4ccc(OC)c(F)c4)CC3)=CC2=N1` (stereo not drawn) it was 622 s; in that of `Cc1ccc(-c2ncc(C(=O)Nc3ccc4c(c3)OCCO4)c(-c3ccncc3)n2)cc1`, 880 s; in that of `O=C(O)c1ccccc1C(=O)Nc1cccc(Cl)c1`, 701 s. `O=C1CCCCC(C(=O)Nc2ccc3c(c2)OCCO3)N1` (stereo not drawn) came in with an RP-LC retention time of 669 s. Consider `CCOC(=O)CCNC(=O)N1CCC(N2C(=O)C3(CCCC3)C2c2scnc2C)CC1` (stereo not drawn), for which the RP-LC retention time came to 685 s. Molecule `Cc1oc(C2CCC2)nc1C(=O)NCc1cc(F)ccc1F` showed an RP-LC retention time of 1030 s. In the case of `O=C(NCCCN1CCC(N2CCCCC2)CC1)c1ccc2c(c1)NC(=O)C1CCCCN21` (stereo not drawn), the RP-LC retention time was determined as 537 s. In turn, `N#CC(C#N)=Cc1ccc(O)c(O)c1` came in with an RP-LC retention time of 841 s. The molecule `Cc1cccc(-c2noc(-c3nnn4c3COC(c3ccc(F)cc3)C4)n2)c1` (stereo not drawn) showed an RP-LC retention time of 1210 s. Consider `COc1ccc(OC)c(NC(=O)C2CCCN(S(=O)(=O)Cc3ccc(Cl)cc3)C2)c1` (stereo not drawn), for which the RP-LC retention time came out at 1050 s. On to `Cn1c(=O)n(C)c2cc(S(=O)(=O)c3ccc(F)cc3)c(NC(=O)Cc3cccs3)cc21`, for which the RP-LC retention time was 790 s. Then `CN(C)CCNC(=O)C1CCN(c2ccc(-c3cccs3)nn2)CC1`, with 571 s; and `COc1ccc(-c2noc(C3CCCN3C(=O)c3cc(F)ccc3F)n2)cc1` (stereo not drawn), with 968 s; and `CCOC(=O)c1ccc(Nc2ncnc3c2ncn3CC)cc1`, with 760 s. As for `COc1ccc2c(c1)C=C(C(=O)N(C)c1ccccc1)C=CO2`, the RP-LC retention time came out at 1030 s. As to `CCCCN1CCN(C(=O)c2ccc3c(c2)nc2n3CCN(C3CCCCC3)C2=O)CC1`, the RP-LC retention time came to 618 s. In turn, `O=C(CN1C(=O)C2CCCCN2c2ccc(C(=O)N3CCCCC3)cc21)N1CCc2ccccc2C1` (stereo not drawn) had an RP-LC retention time of 921 s. `Cc1ccc(C2Cn3cnc(C(=O)N4CCC(C(=O)NCc5ccc(F)cc5F)CC4)c3CO2)cc1` (stereo not drawn) returned an RP-LC retention time of 830 s.

`O=C(CN1C(=O)CCCc2cc(S(=O)(=O)N3CCCC3)ccc21)Nc1ccccc1` returned an RP-LC retention time of 803 s. For the molecule `CCCNc1cc(C)nc2nc(-c3ccc(C(C)(C)C)cc3)nn12`, the RP-LC retention time came out at 1000 s. Regarding `O=C(NCc1cccs1)c1nc2ccccn2c1-c1ccsc1`, the RP-LC retention time was 830 s.

In the case of `c1nn2cnnc2cc1N1CCN(Cc2csc3c2CCCC3)CC1`, the RP-LC retention time worked out at 609 s. In the case of `Cc1sc(-c2nnc(C(=O)N3CCCC3)o2)cc1S(=O)(=O)N1CCN(C)CC1` it was 607 s.

Molecule `CC(=O)Nc1ccc(C2(C(=O)NCc3ccc4c(c3)OCO4)CCC2)cc1` gave an RP-LC retention time of 730 s. As for `O=C(c1cc(-c2ccncc2)n[nH]1)N1CCCC(C(=O)N2CCN(c3ccc(F)cc3)CC2)C1` (stereo not drawn), the RP-LC retention time was found to be 615 s.

Regarding `CN(C)C(CNC(=O)Nc1ccccc1Cl)c1cn(C)c2ccccc12` (stereo not drawn), the RP-LC retention time is 589 s.

`O=C(Cn1cccn1)NCc1ccc(OCc2ccccc2)cc1` returned an RP-LC retention time of 776 s.

Take `Cc1noc(C)c1CCC(=O)N1CCc2nn(CC#N)c(=O)n2CC1`: the RP-LC retention time came out at 630 s. Turning to `Cc1cccc(CNC(=O)c2sc(CC(=O)N3CCSCC3)nc2C)c1`, the RP-LC retention time was 798 s.

In the case of `CCC(C)NC(=O)c1c(O)c2cccnc2n(-c2ccc(OC)cc2)c1=O` (stereo not drawn), the RP-LC retention time was 1140 s. Then `COC(=O)c1cccc(C(=O)NC2CCN(C(=O)c3cc(-c4cccs4)[nH]n3)CC2)c1`, with 733 s. `Cc1nc(-c2ccc(N3CCN(C(=O)c4cc5ccccc5[nH]4)CC3)nc2)sc1C` yielded an RP-LC retention time of 924 s.

Molecule `O=S(=O)(NCCS(=O)(=O)N1CCc2ccccc21)c1cccnc1` returned an RP-LC retention time of 700 s.

Take `CCCN1CCN(CCNC(=O)C2CCCN(c3ncc(-c4cccc(F)c4)cn3)C2)CC1` (stereo not drawn): the RP-LC retention time was 641 s. Molecule `Cc1ccc(-c2csc(-c3cccn3CC(=O)NCc3ccco3)n2)cc1` had an RP-LC retention time of 1100 s. Then `CCc1nccn1Cc1nc(-c2ccc(F)c(Cl)c2)no1`, with 669 s; and `COC(=O)CCNC(=O)C1c2ccccc2C(=O)N(Cc2ccco2)C12CCCCC2` (stereo not drawn), with 799 s; and `Cn1cc(CCN2CCN(C(=O)c3ccc(Br)cc3)CC2)c2cccnc21`, with 620 s. In turn, `Cn1cc(C2=CCN(C(=O)c3cc(F)cc(F)c3)CC2)c2cccnc21` had an RP-LC retention time of 846 s. In turn, `CCOc1ccc(-n2c(N3CCSC3)nc3cc(C(=O)OC)ccc3c2=O)cc1` registered an RP-LC retention time of 1120 s. `CCc1nc(-c2cc(S(=O)(=O)N3CCC(C(=O)N4CCN(CC)CC4)CC3)c(C)s2)no1` returned an RP-LC retention time of 673 s. As for `CCOC(=O)c1[nH]c(C)c(C(=O)N(Cc2ccccc2)C(C)C)c1C`, the RP-LC retention time stood at 860 s. In the case of `O=C(c1c2c(nn1C1CCS(=O)(=O)C1)CCC2)N1CCC(Cc2ccccc2)CC1` (stereo not drawn) it was 849 s. `Cc1ccc(-n2nc(C)c3sc(N4CCCC(C(=O)NCc5ccc(N(C)C)cc5)C4)nc32)cc1` (stereo not drawn) had an RP-LC retention time of 867 s. On to `CCCNC(=O)C1CCN(c2ccc(SCC(=O)NCCc3ccc(Cl)cc3)nn2)CC1`, for which the RP-LC retention time is 663 s. Molecule `COc1cccc(CNC(=O)C2CCN(c3cc(N4CCOCC4)ncn3)CC2)c1` showed an RP-LC retention time of 616 s. Then `CN1C(=O)C(CC(=O)NCC2CCCCC2)Sc2ncccc21` (stereo not drawn), with 761 s; and `COc1ccc(NC(=O)Nc2c(-c3ccc(F)cc3)nc3ccccn23)cc1OC`, with 629 s. As for `CCc1ccc(S(=O)(=O)N2CCc3c(c(-c4nnc(-c5ccccc5)o4)nn3C)C2)cc1`, the RP-LC retention time is 1030 s. Molecule `Cc1nnc([C@@H]2CC(F)(F)CN2C(=O)c2ccc3ncccc3c2)o1` came in with an RP-LC retention time of 607 s. Then `COc1cc(NC(=O)Cc2csc3nc(-c4ccccc4)cn23)cc(OC)c1`, with 795 s; and `O=C(NC1CCCC1)C1CCN(S(=O)(=O)c2cc(C(=O)N3CCCCCC3)cs2)CC1`, with 836 s. `Cc1ccc(-c2csc(NC(=O)COc3ccc(C)cc3Br)n2)cc1` registered an RP-LC retention time of 1290 s. As to `Cc1ccc(-c2cc3c(=O)n(Cc4noc(-c5ccc6c(c5)OCO6)n4)ccn3n2)c(C)c1`, the RP-LC retention time is 1120 s. The molecule `COc1ccc(CN(Cc2ccccc2)Cc2cc(=O)n3ccc(C)cc3n2)cc1` came in with an RP-LC retention time of 681 s. In the case of `O=C(O)c1cc2c(s1)CCN(C(=O)c1ccc(Cl)cc1)C2`, the RP-LC retention time came out at 736 s.

On to `CCOc1ccc2nc(NC3=NCN(Cc4cccnc4)CN3)nc(C)c2c1`, for which the RP-LC retention time stood at 580 s. Regarding `Cc1cc(C)n(Cc2nc(-c3ccc(NC(=O)COc4ccccc4)cc3)oc2C)n1`, the RP-LC retention time stood at 974 s.

Regarding `CC1(C(=O)Nc2ccccc2)Oc2cccnc2NC1=O` (stereo not drawn), the RP-LC retention time was 655 s.

Molecule `O=C(Nc1ccc(N2CCN(Cc3ccc(F)cc3)C2=O)nc1)c1cccs1` had an RP-LC retention time of 570 s. `Cc1ccc(S(=O)(=O)N2CCC(c3nc(C(=O)N(C)C)c(C)o3)CC2)cc1C` came in with an RP-LC retention time of 878 s.

For the origin of these results see the METLIN SMRT retention time set (Domingo-Almenara et al. 2019).
